From PubChem BioAssay (NCI)
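Five concentrations, 48 hours, 96-well plates. The concentration for full growth arrest is given as TGI.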

Legend:
Test in all cases: NCI anticancer screen, dose series, 48 h
[1] = system: OVCAR-3 ovarian
[2] = system: SF-268 CNS
[3] = system: UO-31 renal
[4] = system: K-562 leukemia
[5] = system: OVCAR-5 ovarian
[6] = system: MDA-MB-435
[7] = system: SNB-19 CNS
[8] = system: MOLT-4 leukemia
[9] = system: SF-539 CNS
[10] = system: CCRF-CEM leukemia
[11] = system: TK-10 renal
[12] = system: SN12C renal
[13] = system: KM12 colon

Row | SMILES | TGI [1] [µM] | TGI [2] [µM] | TGI [3] [µM] | TGI [4] [µM] | TGI [5] [µM] | TGI [6] [µM] | TGI [7] [µM] | TGI [8] [µM] | TGI [9] [µM] | TGI [10] [µM] | TGI [11] [µM] | TGI [12] [µM] | TGI [13] [µM]
1 | CC(c1ccccc1)n1c2ccccc2c2c(N)ncnc21 (centres undefined) | 30.6 | 43.5 | 22.2 | 71.9 | 37.9 | 31 | 33.8 | 52.7 | 30.8 | > 100 | 34.9 | – | –
2 | COc1c(-c2ccc(F)cc2)oc2c(CC(=O)O)cccc2c1=O | > 100 | > 100 | 96.6 | > 100 | > 100 | > 100 | – | > 100 | > 100 | > 100 | > 100 | > 100 | –
3 | Clc1ccc2c(c1)CC1C[N+]3=C(CCCCC3)C1=C2 (centres undefined) | > 100 | > 100 | > 100 | > 100 | > 100 | > 100 | > 100 | > 100 | – | > 100 | > 100 | > 100 | > 100
4 | O=c1[nH]nc(-c2ccccc2)n1-n1cccc1 | > 100 | > 100 | > 100 | > 100 | > 100 | > 100 | > 100 | > 100 | – | > 100 | > 100 | > 100 | > 100
5 | COc1cc(C2SCC(=O)N2c2ccc(Cl)cc2)cc(OC)c1OC (centres undefined) | > 100 | > 100 | > 100 | > 52.9 | – | 19.4 | > 100 | 30.7 | > 100 | 30.6 | > 100 | > 100 | > 82.8
6 | CCCCCCC(O)C(=O)OC1C2C(CC1(C)C)C(O)C13OC1C(O)C1(CO1)[C@@]23C (some centres undefined) | > 100 | 53.6 | > 100 | > 100 | > 100 | > 100 | > 100 | > 100 | – | > 100 | > 100 | > 100 | > 100
7 | O=C(Nc1ccccc1)c1cc2cc(CCl)ccc2oc1=O | > 100 | > 100 | > 100 | > 100 | > 100 | > 100 | > 100 | > 100 | – | > 100 | > 100 | > 100 | > 100
8 | C/C1=C\CC[C@@]2(C)O[C@@H]2C[C@@H]2[C@H](C/C(C)=C/CC1)OC(=O)[C@]21CO1 | > 100 | > 100 | > 100 | > 100 | > 100 | > 100 | > 100 | > 100 | – | > 100 | > 100 | > 100 | > 100
9 | CCOC(=O)CN1C(=O)c2c(NC(=O)C(=O)O)cccc2S1(=O)=O | – | > 100 | > 100 | > 100 | > 100 | > 100 | > 100 | > 100 | – | > 100 | > 100 | > 100 | > 100
10 | Cc1nnc(N)nc1C/C=C/C(C)Sc1ccc(Cl)cc1 (centres undefined) | – | 39.9 | 19.4 | > 100 | 36.9 | > 50.8 | > 51 | > 100 | – | 26.4 | 35.9 | > 80.6 | 20.7
11 | CC(NNC(=S)N1CCCC1)c1cccnn1 (centres undefined) | > 100 | – | 3.08 | > 100 | 8.71 | > 100 | > 100 | > 100 | 4.36 | > 100 | > 31.5 | > 100 | > 100
12 | CCCC1(N2C(=O)c3ccc4c5c(ccc(c35)C2=O)N(C2(CCC)CCCCC2)C4=O)CCCCC1 | > 100 | > 100 | > 100 | > 100 | > 100 | > 100 | > 100 | > 100 | > 100 | – | > 100 | > 100 | > 100
13 | Cc1cnc2c(c1)C(=O)N(c1ccc(Br)cc1)S2(=O)=O | > 100 | > 100 | > 100 | – | > 100 | > 100 | > 100 | > 100 | > 100 | > 100 | > 100 | > 100 | > 100
14 | CC(Cn1c(=O)oc2ccccc21)N(C)C (centres undefined) | > 100 | > 100 | – | > 100 | > 100 | > 100 | > 100 | > 100 | > 100 | > 100 | > 100 | > 100 | > 100
